Source: patent publication US6211154A, “Ketoheterocyclic inhibitors of factor Xa” (COR Therapeutics, Inc., priority 1995, dated 2001)

Assay: Coagulation parameters (aPTT, PT) in blood samples of the rabbit venous thrombosis model
Assay type: in vivo
Details: steady state, mean±SD
Excerpt: All measurements are an average of all samples after steady state administration of vehicle or (D)--Arg--G|y--Arg--thiazole. Values are expressed as mean±SD.

With `NC(N)=NCCCC(N)C(=O)NCC(=O)NC(CCCN=C(N)N)C(=O)c1nccs1` [H-D-Arg-Gly-Arg-thiazole, H--(D)--Arg--Gly--Arg--Thiazole] the “PT fold increase over baseline” value (50 μg/kg + 1.28 μg/kg/min) was 1.00 ± 0.00 fold, the “PT fold increase over baseline” value (75 μg/kg + 1.93 μg/kg/min) was 1.00 ± 0.00 fold and the “PT fold increase over baseline” value (100 μg/kg + 2.57 μg/kg/min) was 0.83 ± 0.00 fold.
